Measurements taken from US20150299061A1, “FERTILISER COMPOSITION” (priority 2012, published 2015).
Marks after values point to notes of the source that are not given here.

System: grazed pasture
Test: Field trial on grazed pasture: pasture shoot dry matter from two cuts after treatment application
Assay type: in vivo
Parameters: Mean Difference vs C (control) / Mean Difference vs UG-20 / Mean Difference vs UG-20 + GA-10 / Mean Difference vs UG-20 + GA-30 / Mean Difference vs UG-20 + GA-60 / Mean Difference vs UL-20 / Mean Difference vs UL-20 + GA-20 / Mean Difference (Control minus treatment): unit not given here
Protocol: The trial was carried out with a total of eight treatments. The eight treatment groups were • 1. Control—negative control (no nitrogen or gibberellic acid), • 2. GA-20—gibberellic acid positive control (gibberellic acid applied at 20 g/ha), • 3. UG-20—granular urea positive control (granular urea applied at a rate of 20 kg N/ha, • 4. UG-20+GA-10—10 g/ha gibberellic acid-coated urea granules (granular urea-20 coated with gibberellic acid to apply gibberellic acid at a rate of 10 g/ha), • 5. UG-20+GA-30—30 g/ha gibberellic acid-coated urea granules (granular urea-20 coated with gibberellic acid to apply gibberellic acid at a rate of 30 g/ha), and • 6. UG-20+GA-60—60 g/ha gibberellic acid-coated urea granules (granular urea-20 coated with gibberellic acid to apply gibberellic acid at a rate of 60 g/ha). • 7. UL-20—liquid urea positive control (liquid urea applied at a rate of 20 kg N/ha [with total liquid volume of 200 L/ha]), and 8. UL-20+GA-20—liquid urea and gibberellic acid positive control (liquid urea applied at a rate of 20 kg N/ha with gibberellic acid applied at a rate of 20 g/ha).
The trial was performed with four repetitions per treatment group on a plot with an area of 2 m^2×2 m^2 at locations in Whangarei, Matamata, Lincoln, Ashburton, and Southland.
The treatments were applied on grazed pasture. All experimental sites were fenced off four months prior to treatment application to avoid nitrogen inputs from grazing animals and fertiliser application. At each site, four blocks separated by a 1 m buffer were established. Each block contained eight small plots (each plot of 2m^2×2m^2) separated by a 1 m buffer zone to give a total of 32 plots.
The above eight treatments were applied in mid August 2011. Before treatments application, four composite soil samples (0-10 cm soil depth), were collected for key soil properties (i.e. soil pH, organic C &N, Olsen P, K, Ca, Mg, CEC, base saturation and MAF quick test). Each composite soil sample composed of 10 randomly collected soil samples from each block. Pastures from each plot were cut at 4 to 5 cm height using a lawn mower at appropriate times (preferably after every 21 days) to simulate rotational grazing practices. Bulk fresh pasture weight for each plot was recorded. Before mowing pastures from each plot, four small randomly picked pasture samples from each plot were cut using a pair of scissors. Fresh pastures were transferred to sealable plastic bags and were kept in a chilly bin. Fresh pastures from each plastic bag were then be transferred to a pre-weighed paper bag, weighed (at least 2 decimal balance), and dried at 60 to 70° C. for one week. After one week of drying, dry pasture weight was recorded to determine pasture moisture content.
In the case of liquid treatments, these were all applied at a rate of 200 L/ha.
The effectiveness of the treatments was measured by comparing the pasture shoot dry matter from two cuts after treatment application. The first cut was made on 26 Sep. 2011 and the second cut made on 12 Oct. 2011.
The pairwise comparisons were calculated using Fisher's least significant difference (LSD) with P=0.05.

C=C1C[C@]23C[C@@]1(O)CC[C@H]2[C@@]12C=C[C@H](O)[C@@](C)(C(=O)O1)[C@H]2[C@@H]3C(=O)O [GA-20 only, gibberellic acid]
Cumulative mean pasture dry matter (mean for the five treatment areas (Whangarei, Matamata, Lincoln, Ashburton, Southland), two cuts after treatment): 3038.7 | Mean Difference (Control minus treatment) (pairwise comparison of Table 1 means, Fisher's LSD P=0.05, Control is first treatment, labelled treatment is subtracted): −757.857* | Mean Difference vs C (control) (pairwise comparison, Fisher's LSD P=0.05, treatment minus C): 757.857* | Mean Difference vs UG-20 (pairwise comparison, Fisher's LSD P=0.05, treatment minus UG-20): 56.321 | Mean Difference vs UG-20 + GA-10 (pairwise comparison, Fisher's LSD P=0.05, treatment minus UG-20 + GA-10): −91.281 | Mean Difference vs UG-20 + GA-30 (pairwise comparison, Fisher's LSD P=0.05, treatment minus UG-20 + GA-30): −427.001* | Mean Difference vs UG-20 + GA-60 (pairwise comparison, Fisher's LSD P=0.05, treatment minus UG-20 + GA-60): −381.674* | Mean Difference vs UL-20 (pairwise comparison, Fisher's LSD P=0.05, treatment minus UL-20): −141.578 | Mean Difference vs UL-20 + GA-20 (pairwise comparison, Fisher's LSD P=0.05, treatment minus UL-20 + GA-20): −423.846*
